Measured values from PubChem BioAssay AID1259332 (Broad Institute, 2017).
Calls of active or inactive are those of the source. No rule for the calls is given here.

Test system: B cell line, CD40 signaling inhibition reporter
Experiment: CD40 pathway inhibition in B cells – B cell lineage, dose response (AID 1259332);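 also: cells stimulated with CD40 ligand tCD40L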

Row | SMILES | AC50
1 | C1CCC(C(CC2CCCCN2)C2CCCCC2)CC1 (centres undefined) | 2.39 µM
2 | COC1=CC(=O)c2c(ccc3ncnc(N)c23)C1=O | 1.66 µM
3 | COc1ccc(CC2C(=O)NC(C)C(=O)N(C)C3Cc4ccc(cc4)Oc4cc(ccc4O)CC(C(=O)NC(C)C(=O)NC(C)C(=O)N2C)N(C)C3=O)cc1 (centres undefined) | 0.00631 µM
4 | CC(=O)Nc1ccc(Sc2ccc([N+](=O)[O-])o2)cc1 | 1.99 µM
5 | C[C@H](CO)N1C[C@H](C)[C@H](CN(C)C(=O)C2CCOCC2)Oc2ncc(C#CCc3ccccc3)cc2C1=O | 9.51 µM
6 | O=C(/C=C/c1ccccc1)CC(O)(c1ccccc1)C(F)(F)C(F)F (centres undefined) | 6.39 µM
7 | CCOC(=O)c1cc2c(ccn2C)n1Cc1ccc(C#N)cc1 | > 20 µM (inactive)
8 | O=C(NCCc1ccccc1)c1ccc2nccnc2c1 | 6.02 µM
9 | CC(=O)OCC(=O)C1(O)CCC2C3CCC4=CC(=O)CCC4(C)C3(Cl)C(O)CC21C (centres undefined) | > 20 µM (inactive)
10 | C[C@H]1CN([C@@H](C)CO)C(=O)Cc2cc(NC(=O)Cc3cn(C)c4ccccc34)ccc2O[C@H]1CN(C)Cc1ccc(C(F)(F)F)cc1 | > 20 µM (inactive)
11 | CC(=O)OC1CC2(O)C3CCC4CC(O)CCC4(C)C3CCC2(C)C1C1=CC(=O)OC1 (centres undefined) | 1.12 µM
12 | C[C@@H]1CN([C@@H](C)CO)C(=O)c2ccccc2-c2ccccc2CO[C@H]1CN(C)Cc1ccccc1C(F)(F)F | 8.01 µM
13 | O=C(C[C@@H]1C[C@H]2c3cc(NC(=O)Nc4ccc(C(F)(F)F)cc4)ccc3O[C@H]2[C@H](CO)O1)NCc1cc(F)ccc1F | > 20 µM (inactive)
14 | N#C[C@@H]1[C@H](c2ccc(C#CC3CCCC3)cc2)[C@@H](CO)N1C(=O)Nc1ccc(F)cc1 | > 20 µM (inactive)
15 | Cc1noc(C)c1S(=O)(=O)Nc1ccc2c(c1)CC(=O)N([C@@H](C)CO)C[C@@H](C)[C@@H](CN(C)Cc1ccc(Oc3ccccc3)cc1)O2 | 7.39 µM
16 | C[C@H](CO)N1C[C@H](C)[C@H](CN(C)C(=O)Nc2cccc(Cl)c2Cl)OCc2ccccc2-c2c(n(C)c3ccccc23)C1=O | 5.24 µM
17 | COc1ccc(C(=O)O/N=C2\C(=O)N(C)c3ccccc32)cc1 | 1.84 µM
18 | CC(NCC(O)COCCC12CC3CC(CC(C3)C1)C2)c1ccccc1 (centres undefined) | 4.88 µM
19 | O=c1cc(-c2ccc(O)cc2)oc2ccc3ccccc3c12 | 2.2 µM
20 | CC(C)(C)[C@H](N)C(=O)N[C@H]1CCC2C3CC=C4C[C@@H](O)CC[C@]4(C)C3CC[C@@]21C (some centres undefined) | 5.04 µM
21 | Cc1cc(OCC(=O)OCC(=O)NCc2ccco2)ccc1Cl | 9.63 µM
22 | O=C1C=CC2C3C(=O)N(c4ccccc4)C(=O)C3C1N2Cc1ccccc1 (centres undefined) | 1.8 µM
23 | c1cc(-c2cnn3cc(-c4ccc(OCCN5CCCCC5)cc4)cnc23)ccn1 | 2.7 µM

Row | SMILES | AC50
24 | CC1(C)C(=O)C=C[C@@]2(C)C1C[C@@H](O)[C@]1(C)C2CC[C@@]2(C)[C@H](c3ccoc3)OC(=O)[C@H]3O[C@]321 (some centres undefined) | 7.18 µM
25 | COc1ccc(S(=O)(=O)Nc2ccc3c(c2)C(=O)N([C@H](C)CO)C[C@H](C)[C@@H](CN(C)Cc2ccc(C(F)(F)F)cc2)OCCCC[C@@H](C)O3)cc1 | 11.4 µM
26 | C[n+]1c(-c2ccccc2)cc2c(=Cc3ccc([N+](=O)[O-])cc3)c3ccccc3n21 | 3.93 µM
27 | COC(=O)C1=C(C)NC(C)=C(C(=O)OCCCN2CCC(c3ccccc3)(c3ccccc3)CC2)[C@H]1c1cccc([N+](=O)[O-])c1 | 11.4 µM
28 | Cc1[nH]c2ccccc2c1C(c1ccccn1)N1CCC(C(N)=O)CC1 (centres undefined) | 9.34 µM
29 | Cc1ccc(N2CC(C(=O)Nc3nccs3)CC2=O)cc1Cl (centres undefined) | 8.73 µM
30 | C[C@@H]1CN([C@@H](C)CO)C(=O)c2c(c3ccccc3n2C)-c2ccccc2CO[C@H]1CN(C)C(=O)Nc1cccc(C(F)(F)F)c1 | 9.25 µM
31 | CC(C)(C)c1cc(C=C(C#N)C#N)cc(C(C)(C)C)c1O | 0.524 µM
32 | CCc1cnc(N2[C@H](C#N)[C@H](c3ccc(C#Cc4ccccc4F)cc3)[C@H]2CO)s1 | 9.09 µM
33 | C[C@@H]1CN([C@H](C)CO)C(=O)c2cc(NS(=O)(=O)c3cccs3)ccc2O[C@@H](C)CCCCO[C@H]1CN(C)Cc1ccc(Cl)c(Cl)c1 | > 20 µM (inactive)
34 | CC(C)CC#Cc1ccc([C@@H]2[C@H]3CN(C(=O)Nc4ccccc4)CCCCN3[C@H]2CO)cc1 | 9.52 µM
35 | C=C1C(=O)O[C@H]2[C@H]1CC/C(C)=C/CC[C@@]1(C)O[C@@H]21 | 4.54 µM
36 | O=C1c2ccccc2C(=O)C1c1ccc2ccccc2n1 | 6.15 µM
37 | COC(=O)c1nn(-c2ccc(-c3ccccc3)cc2)cc1O | 8.42 µM
38 | CCCC(=O)NC1=C(Cl)C(=O)c2ccccc2C1=O | 0.935 µM
39 | Clc1ccc(COC(Cn2ccnc2)c2ccc(Cl)cc2Cl)c(Cl)c1 (centres undefined) | 5.18 µM
40 | N#C[C@@H]1[C@H](c2ccc(C#CC3CCCCC3)cc2)[C@@H](CO)N1S(=O)(=O)c1ccccc1 | 2.28 µM
41 | COc1cc2c(cc1OC)C(=O)C(Br)CC2 (centres undefined) | 3.76 µM
42 | O=C(NC(=S)/C(=C1\CCCCCN1)[N+](=O)[O-])c1ccccc1 | 3.07 µM
43 | CC1CC(C)CC(C)C(O)C(C#N)=CC=CCC(C2CCCC2C(=O)O)OC(=O)CC(O)C(C)C1 (centres undefined) | < 0.0005 µM
44 | CCS(=O)(=O)N1Cc2ccccc2CC1C(=O)Nc1nc2ccccc2s1 (centres undefined) | 10.9 µM
45 | O=C(c1ccc(F)cc1)N1C[C@@H]2N[C@H](C1)C2c1ccc(/C=C/c2ccccc2)cc1 (some centres undefined) | 4.68 µM
46 | CC1OC(OC2CC(O)C3(CO)C4C(O)CC5(C)C(C6=CC(=O)OC6)CCC5(O)C4CCC3(O)C2)C(O)C(O)C1O (centres undefined) | 0.405 µM

Row | SMILES | AC50
47 | CC1OC(CC(=O)O)CC2=C1C(=O)c1c(O)cccc1C2=O (centres undefined) | 0.204 µM
48 | O=C(C1CCOCC1)N1CC(=O)N2[C@H](C1)[C@H](c1ccc(C#CCc3ccccc3)cc1)[C@@H]2CO | 1.86 µM
49 | C[C@H](CO)N1C[C@H](C)[C@H](CN(C)S(=O)(=O)c2ccc(Cl)cc2)Oc2c(NC(=O)Nc3ccc(F)cc3)cccc2C1=O | 6.47 µM
50 | CCOC(=O)c1c(SCCN2CCCC2)n(-c2ccccc2)c(=S)n(-c2ccccc2)c1=O | > 20 µM (inactive)
51 | CC1=C(O)C(=O)C=C2C1=CC=C1C2(C)CCC2(C)C3CC(C)(C(=O)O)CCC3(C)CCC12C (centres undefined) | 0.888 µM
52 | O=C(C1CCOCC1)N1CC(=O)N2[C@H](C1)[C@@H](c1ccc(C#CCc3ccccc3)cc1)[C@@H]2CO | 5.95 µM
53 | COc1ccc(S(=O)(=O)N(C)C[C@H]2Oc3ccc(NC(=O)Nc4ccc(C(F)(F)F)cc4)cc3C(=O)N([C@@H](C)CO)C[C@H]2C)cc1 | > 20 µM (inactive)
54 | CC1CC(C)(C)Nc2ccc(OC(=O)c3ccco3)cc21 (centres undefined) | 3.23 µM
55 | Cc1ccc(S(=O)(=O)CCC(=O)N(CCCN2CCOCC2)c2nc3ccccc3s2)cc1 | 8.01 µM
56 | O=S(c1ccccc1O)S(=O)c1ccccc1O (centres undefined) | 4.55 µM
57 | COc1ccc(S(=O)(=O)Nc2ccc3c(c2)C(=O)N([C@H](C)CO)C[C@@H](C)[C@@H](CN(C)Cc2ccc(C(F)(F)F)cc2)OCCCC[C@@H](C)O3)cc1 | 8.69 µM
58 | N#C[C@@H]1[C@@H](c2ccc(C#CC3CCCCC3)cc2)[C@H](CO)N1C(=O)Nc1ccc(F)cc1 | 6.51 µM
59 | Cn1c(CO)nc2cc(N)ccc21 | > 20 µM (inactive)
60 | CN(C)C(=S)SSC(=S)N(C)C | 0.152 µM
61 | C[C@@H]1CCCCO[C@H](CN(C)CC2CCCCC2)[C@H](C)CN([C@@H](C)CO)C(=O)c2cc(NC(=O)Nc3ccc(C(F)(F)F)cc3)ccc2O1 | 8.6 µM
62 | CC(C)CCCCCCCCCCCCC(=O)NCC(=O)NC1C(O)C(O)C(Nc2ncnc3nc[nH]c23)OC1C(O)CO (centres undefined) | 0.0128 µM
63 | CCC(C)[C@H]1O[C@]2(CC[C@@H]1C)C[C@@H]1C[C@@H](C/C=C(\C)[C@@H](OC3C[C@H](OC)C(O[C@H]4C[C@H](OC)[C@@H](O)[C@H](C)O4)[C@H](C)O3)[C@@H](C)/C=C/C=C3\CO[C@@H]4[C@H](O)C(C)=C[C@@H](C(=O)O1)[C@]34O)O2 (some centres undefined) | > 20 µM (inactive)
64 | O=C1NC2C(O)C(O)C(O)C(O)C2c2cc3c(c(O)c21)OCO3 (centres undefined) | 0.155 µM
65 | CC1CC(C)C(=O)C(C(CC2CC(=O)NC(=O)C2)OC(=O)CC(=O)c2ccccc2)C1 (centres undefined) | 3.18 µM
66 | CC(C)(C)NCC(=Cc1ccccc1)C(=O)c1ccccc1 | 7.22 µM
67 | C[n+]1c2n(c3ccccc31)N=C(c1ccc(-c3ccccc3)cc1)CS2 | 1.21 µM
68 | COc1ccccc1NC(c1cccnc1)c1ccc2cccnc2c1O (centres undefined) | 8.25 µM
69 | O=C(COC(=O)c1ccccc1C(=O)c1ccc(Cl)c([N+](=O)[O-])c1)NC1CC1 | 1.62 µM

Row | SMILES | AC50
70 | C[C@@H]1CN([C@@H](C)CO)C(=O)c2cc(C#CCc3ccccc3)cnc2O[C@@H]1CN(C)C(=O)C1CCOCC1 | 7.23 µM
71 | Cc1ccccc1-c1ccc2c(c1)O[C@@H](CN(C)C(=O)Nc1ccc(C(F)(F)F)cc1)[C@@H](C)CN([C@@H](C)CO)S2(=O)=O | 10.5 µM
72 | O=C(C#Cc1ccccc1)c1ccccc1 | 6.37 µM
73 | COc1ccc2c(c1)c1ncn(Cc3ccccn3)c(=O)c1n2C | > 20 µM (inactive)
74 | C[C@H]1CN([C@@H](C)CO)C(=O)c2c(c3ccccc3n2C)-c2ccccc2CO[C@H]1CN(C)C(=O)Nc1ccccc1C(F)(F)F | > 20 µM (inactive)
75 | CN1C(=O)/C(=N\OC(=O)c2cccc3ccccc23)c2ccccc21 | 1.21 µM
76 | Oc1ccc2c(c1)OCC1(O)Cc3cc(O)c(O)cc3C21 (centres undefined) | 2.81 µM
77 | C[C@@H]1C[C@@H]([C@H](O)CC2CC(=O)NC(=O)C2)C(=O)[C@@H](C)C1 | 0.393 µM
78 | CC(=NNc1ccc2ccccc2n1)c1ccccc1O | 2.94 µM
79 | O=C1/C(=C/c2ccccc2)C[C@@]2(O)C3Cc4ccc(O)c5c4[C@@]2(CCN3CC2CC2)[C@H]1O5 | 1.75 µM
80 | N#C[C@@H]1[C@H](c2ccc(C#Cc3ccc(F)cc3)cc2)[C@@H](CO)N1C(=O)C1CCC1 | 4.71 µM
81 | C[C@H]1CN([C@@H](C)CO)C(=O)c2ccccc2-c2ccccc2CO[C@H]1CN(C)C(=O)[C@@H](Cc1ccccc1)N(C)C | > 20 µM (inactive)
82 | O=C1NC2c3c(Cl)sc(Cl)c3C(=O)C2O1 (centres undefined) | 7.36 µM
83 | O=C(C[C@@H]1CC[C@H]2[C@@H](COC[C@@H](O)CN2Cc2cc(F)ccc2F)O1)NCc1ccc(Oc2ccccc2)cc1 | > 20 µM (inactive)
84 | C[C@H](CO)N1C[C@H](C)[C@@H](CN(C)Cc2ccc(Cl)c(Cl)c2)OCCCC[C@H](C)Oc2ccc(NS(=O)(=O)c3cccs3)cc2C1=O | 8.38 µM
85 | c1ccc(-c2ccc(-c3ccccn3)nn2)nc1 | 7.89 µM
86 | Cn1cc(C2=C(c3cn(CCCSC(=N)N)c4ccccc34)C(=O)NC2=O)c2ccccc21 | 0.67 µM
87 | CC1CNCCN1S(=O)(=O)c1cccc2cnccc12 (centres undefined) | 9.01 µM
88 | Cc1ccc(OCCn2cnc3c(N)ncnc32)cc1 | 0.649 µM
89 | CCOc1ncccc1C(=O)OC(C)C(=O)Nc1ccc(Cl)cn1 (centres undefined) | 10.1 µM
